{
  "source": "paper PMC6153434",
  "about": "“Bystander Effects of Hypoxia-Activated Prodrugs: Agent-Based Modeling Using Three Dimensional Cell Cultures” (Frontiers in Pharmacology, 2018)",
  "key": {"[1]": {"tested_on": "POR-G activators and PORko-R targets (HCT116)"}, "[2]": {"tested_on": "high-POR 'activator' HCT116 cells in spheroids", "assay": "Spheroid clonogenic assay under anoxia (activators in co-culture spheroids)", "assay_type": "cell-based", "conditions": "spheroids comprising 100% activators, anoxic exposure 1 h (Figure 9B)"}, "HCT116 and HCT116/POR#6": {"tested_on": "HCT116 and HCT116/POR#6", "conditions": "cited from earlier work"}, "[3]": {"tested_on": "POR-null 'target' HCT116 cell lines (PORko-R, PORko-G)", "assay": "Monolayer clonogenic assay under anoxia (targets)", "assay_type": "cell-based", "conditions": "monolayer cultures, anoxic exposure 1 h (used for ABM analysis, Figure 9A)", "excerpt": "Log-phase cells were trypsinized and cell pellets, collected by centrifugation, were transferred to a Bactron anaerobic chamber (Sheldon Manufacturing Inc., Cornelius, OR, United States) under 3–5% H2/5% CO2/balance N2, <100 ppm O2, with a palladium/activated carbon catalyst to maintain anoxia. (The term “anoxia” is used throughout to refer to the gas phase, without necessarily implying complete anoxia in monolayers or spheroids as discussed below.) Cells were resuspended and seeded at 10^5 cells/0.15 mL in 96-well plates using medium and plates equilibrated in the chamber for 3 days to ensure complete deoxygenation. After incubation at 37 °C for 2 h for cell attachment, cells were exposed to drugs for 1 h, removed from the chamber, trypsinized, counted with a Coulter counter (model Z2; Beckman Coulter^TM, Indianapolis, IN, United States) and plated in 6-well plates. After 10 days, plates were stained with methylene blue (2 g/L in EtOH:H2O, 1:1 v/v) and colonies with more than 50 cells were counted. Plating efficiency (PE) was calculated as number of colonies/number of cells plated, and surviving fraction (SF) was determined as PE(drug treated)/PE(control)."}, "[4]": {"tested_on": "POR-null 'target' HCT116 cells in spheroids", "assay_type": "cell-based"}, "[5]": {"tested_on": "high-POR 'activator' HCT116 cell lines (POR-R, POR-G)", "assay_type": "cell-based", "conditions": "monolayer cultures"}, "[6]": {"conditions": "published value, PR104H+M model, ref Foehrenbacher et al., 2013"}, "[7]": {"conditions": "published value, ref Foehrenbacher et al., 2013"}},
  "data": [
    {"smiles": "CS(=O)(=O)OCCN(CCBr)c1c(C(=O)NCCO)cc([N+](=O)[O-])cc1[N+](=O)[O-]", "note": "[PR104A]", "values": [
      {"measurement": "Activator F2, proportion of O2-dependent rate of metabolism of the drug in activators", "setting": "[1]", "value": 0.977},
      {"measurement": "Activator Kmet,0, rate constant for the maximum rate of metabolism in activator cells under anoxia", "setting": "[1]", "value": 2, "unit": "min⁻¹"},
      {"measurement": "Hill parameter n", "setting": "[1]", "value": 2},
      {"measurement": "KO2, O2 concentration for half-maximum prodrug activation", "setting": "[1]", "value": 0.126},
      {"measurement": "Kc, intrinsic cytotoxic potency", "setting": "[1]", "value": 0, "unit": "M⁻¹ s⁻¹"},
      {"measurement": "Kin, rate constant for transfer from the extracellular to the intracellular compartment", "setting": "[1]", "value": 3, "unit": "min⁻¹"},
      {"measurement": "Kout, rate constant for transfer from the intracellular to the extracellular compartment", "setting": "[1]", "value": 0.5, "unit": "min⁻¹"},
      {"measurement": "Target F2, proportion of O2-dependent rate of metabolism of the drug in targets", "setting": "[1]", "value": 0.977},
      {"measurement": "Target Kmet,0, rate constants for the maximum rate of metabolism in target cells under anoxia", "setting": "[1]", "value": 0.03, "unit": "min⁻¹"},
      {"measurement": "half-life", "setting": "physchem", "value": 10.2, "unit": "h"},
      {"measurement": "concentration giving 90% kill in spheroids", "setting": "[2]", "value": 5, "unit": "µM"},
      {"measurement": "Half-life, non-enzymatic loss in culture medium", "setting": "HCT116 and HCT116/POR#6; 37 °C, published value, PR104H+M model, ref Foehrenbacher et al., 2013", "value": 10.2, "unit": "h"},
      {"measurement": "Activator Kmet,0, rate constant for the maximum rate of metabolism in activator cells under anoxia", "setting": "HCT116 and HCT116/POR#6; [6]", "value": 1.08, "unit": "min⁻¹"},
      {"measurement": "Kc, intrinsic cytotoxic potency", "setting": "HCT116 and HCT116/POR#6; [6]", "value": 0, "unit": "M⁻¹ s⁻¹"},
      {"measurement": "Kin, rate constant for transfer from the extracellular to the intracellular compartment", "setting": "HCT116 and HCT116/POR#6; [6]", "value": 3, "unit": "min⁻¹"},
      {"measurement": "Kout, rate constant for transfer from the intracellular to the extracellular compartment", "setting": "HCT116 and HCT116/POR#6; [6]", "value": 0.5, "unit": "min⁻¹"},
      {"measurement": "Target Kmet,0, rate constants for the maximum rate of metabolism in target cells under anoxia", "setting": "HCT116 and HCT116/POR#6; [6]", "value": 0.054, "unit": "min⁻¹"},
      {"measurement": "Activator F2, proportion of O2-dependent rate of metabolism of the drug in activators", "setting": "HCT116 and HCT116/POR#6; [7]", "value": 0.977},
      {"measurement": "Hill parameter n", "setting": "HCT116 and HCT116/POR#6; [7]", "value": 1},
      {"measurement": "Target F2, proportion of O2-dependent rate of metabolism of the drug in targets", "setting": "HCT116 and HCT116/POR#6; [7]", "value": 0.977},
      {"measurement": "KO2, O2 concentration for half-maximum prodrug activation", "setting": "HCT116 and HCT116/POR#6; published value, ref Hicks et al., 2007", "value": 0.126},
      {"measurement": "KO2 (sensitivity of PR104A metabolism to oxygen)", "setting": "HCT116 and HCT116/POR#6; ref Hicks et al., 2007", "value": 0.126, "unit": "µM"},
      {"measurement": "PR-104A concentration giving 90% kill", "setting": "[3]", "value": 17, "unit": "µM"},
      {"measurement": "killing of target cells as proportion of activators increases", "setting": "[4]; co-culture spheroids 0, 10, 50 or 100% activators, 1 h under anoxia", "value": "markedly increased with increasing proportion of POR-G activator cells"},
      {"measurement": "bystander effect", "setting": "[4]; spheroid co-cultures with ABM simulation, anoxia", "value": "clearly demonstrated the existence of a bystander effect"},
      {"measurement": "concentration giving 90% kill in spheroids", "setting": "[4]; spheroids comprising 100% targets, anoxic exposure 1 h (Figure 9B)", "value": 20, "unit": "µM"},
      {"measurement": "PR-104A concentration giving 90% kill", "setting": "[5]; activators, anoxic exposure 1 h (used for ABM analysis, Figure 9A)", "value": 1, "unit": "µM"},
      {"measurement": "sensitivity of activator cell lines (clonogenic survival)", "setting": "[5]; 1 h under anoxia, relative to targets", "value": "marked increases in the sensitivity"}
    ]}
  ]
}
